What was measured:
Carybdea alata hemolysin = target: T1, Carybdea alata hemolysin (Alatina alata, UniProt Q9GNN8); test: Hemolysis induced by Carybdea alata hemolysin in 2% RBC; format: cell-based; conditions: 5 mM zinc gluconate
T1 sequence (Q9GNN8 31-463 limits assumed): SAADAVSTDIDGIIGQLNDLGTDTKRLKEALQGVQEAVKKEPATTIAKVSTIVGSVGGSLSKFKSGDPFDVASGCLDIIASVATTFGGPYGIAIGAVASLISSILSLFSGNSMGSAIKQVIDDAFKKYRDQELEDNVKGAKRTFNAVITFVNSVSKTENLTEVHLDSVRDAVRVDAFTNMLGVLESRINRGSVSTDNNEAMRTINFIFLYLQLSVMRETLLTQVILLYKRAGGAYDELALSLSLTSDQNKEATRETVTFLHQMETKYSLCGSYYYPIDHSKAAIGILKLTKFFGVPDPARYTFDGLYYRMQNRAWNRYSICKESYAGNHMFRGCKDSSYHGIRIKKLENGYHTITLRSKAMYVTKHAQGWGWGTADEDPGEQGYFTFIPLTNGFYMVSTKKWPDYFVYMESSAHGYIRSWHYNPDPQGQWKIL

[1] = target: T2, purified hemolysin from Carybdea alata (Alatina alata, UniProt Q9GNN8); test: Potassium efflux induced by purified hemolysin from Carybdea alata in isolated red blood cells; format: cell-based; conditions: 2% RBC; FIG. 4 legend
T2 sequence (Q9GNN8 31-463 limits assumed): T1 sequence (Q9GNN8 31-463 limits assumed)

For zinc gluconate, which “hemolysis induced by Carybdea alata hemolysin” value (Carybdea alata hemolysin) is on record?
The value was “substantially inhibited”.

What about the “potassium efflux induced by purified hemolysin from Carybdea alata” value [1] of the same substance?
Its value is “inhibits”.

— patent US20130078317A1, “ZINC-CONTAINING COMPOSITIONS FOR THE TREATMENT OF DISEASES, ILLNESSES AND SYNDROMES ASSOCIATED WITH EXPOSURE TO PORE FORMING TOXINS” (priority 2009, published 2013)
